Activity coefficient data for 25 compounds are collected here from the NIST ThermoML archive (doi:10.1021/je800218g).

± gives the expanded uncertainty stated by the source.

This series in a line: activity coefficient (dimensionless); of the first substance listed, at infinite dilution; xn = mol fraction of the nth substance listed. The conditions noted are these: Liquid, Chromatography, x1 = 0.

In the case of `Cc1ccccc1C` [1,2-dimethylbenzene] + CCn1cc[n+](C)c1.F[B-](F)(F)F, the activity coefficient reads like this: (303.15 K) 4.73 ± 0.5; (313.15 K) 4.69 ± 0.49; (323.15 K) 4.64 ± 0.49; (333.15 K) 4.58 ± 0.48; (343.15 K) 4.5 ± 0.47; (353.15 K) 4.41 ± 0.46. In addition, under “363.15 K”, the activity coefficient was determined as 4.34 ± 0.46.

As to `Cc1cccc(C)c1` [1,3-dimethylbenzene] + CCn1cc[n+](C)c1.F[B-](F)(F)F, the activity coefficient reads like this: (303.15 K) 5.88 ± 0.62; (313.15 K) 5.71 ± 0.6; (323.15 K) 5.57 ± 0.59; (333.15 K) 5.32 ± 0.56; (343.15 K) 5.17 ± 0.54; (353.15 K) 4.98 ± 0.52. Moreover, the activity coefficient (363.15 K) was found to be 4.83 ± 0.51.

Regarding `Cc1ccc(C)cc1` [1,4-dimethylbenzene] + CCn1cc[n+](C)c1.F[B-](F)(F)F, the activity coefficient (303.15 K) is 5.41 ± 0.57; the activity coefficient (313.15 K) turned out to be 5.3 ± 0.56; the activity coefficient (323.15 K) was 5.14 ± 0.54; the activity coefficient (333.15 K) amounted to 5.03 ± 0.53; the activity coefficient (343.15 K) is 4.96 ± 0.52; the activity coefficient (353.15 K) was 4.88 ± 0.51. Further, the activity coefficient (363.15 K) came out at 4.76 ± 0.5.

Take `C1COCCO1` [1,4-dioxane] + CCn1cc[n+](C)c1.F[B-](F)(F)F: the activity coefficient was found to be 1.35 ± 0.14 (303.15 K); 1.4 ± 0.14 (313.15 K); 1.42 ± 0.15 (323.15 K); 1.44 ± 0.15 (333.15 K); 1.47 ± 0.15 (343.15 K); 1.49 ± 0.15 (353.15 K). For the same compound, the activity coefficient (363.15 K) stood at 1.51 ± 0.16.

In the case of `CC(C)CC(C)(C)C` [2,2,4-trimethylpentane] + CCn1cc[n+](C)c1.F[B-](F)(F)F, the activity coefficient by setting is: (303.15 K) 158 ± 17; (313.15 K) 143 ± 15; (323.15 K) 124 ± 13; (333.15 K) 112 ± 12; (343.15 K) 101 ± 11; (353.15 K) 85.8 ± 9. Further, the activity coefficient (363.15 K) was determined as 75.3 ± 7.9.

For `CC(C)=O` [acetone] + CCn1cc[n+](C)c1.F[B-](F)(F)F, the activity coefficient by setting is: (303.15 K) 1.23 ± 0.13; (313.15 K) 1.26 ± 0.13; (323.15 K) 1.27 ± 0.13; (333.15 K) 1.29 ± 0.13; (343.15 K) 1.31 ± 0.14; (353.15 K) 1.33 ± 0.14. Further, the activity coefficient (363.15 K) turned out to be 1.33 ± 0.14.

For `CC#N` [acetonitrile] + CCn1cc[n+](C)c1.F[B-](F)(F)F, the activity coefficient reads like this: (303.15 K) 0.892 ± 0.091; (313.15 K) 0.875 ± 0.09; (323.15 K) 0.853 ± 0.087; (333.15 K) 0.832 ± 0.085; (343.15 K) 0.814 ± 0.084; (353.15 K) 0.792 ± 0.082. For the setting “363.15 K”, the activity coefficient amounted to 0.769 ± 0.079.

In the case of `c1ccccc1` [benzene] + CCn1cc[n+](C)c1.F[B-](F)(F)F, the activity coefficient (303.15 K) amounted to 2.13 ± 0.22; the activity coefficient (313.15 K) was found to be 2.11 ± 0.22; the activity coefficient (323.15 K) was 2.09 ± 0.22; the activity coefficient (333.15 K) is 2.05 ± 0.21; the activity coefficient (343.15 K) was 2.02 ± 0.21; the activity coefficient (353.15 K) was 1.99 ± 0.21. Under “363.15 K”, the activity coefficient was determined as 1.96 ± 0.21.

In the case of `C1CCCCC1` [cyclohexane] + CCn1cc[n+](C)c1.F[B-](F)(F)F, the activity coefficient was determined as 70.5 ± 7.4 (303.15 K); 60.9 ± 6.4 (313.15 K); 49.7 ± 5.2 (323.15 K); 39.6 ± 4.2 (333.15 K); 31.2 ± 3.3 (343.15 K); 27.5 ± 2.9 (353.15 K). Further, the activity coefficient (363.15 K) came to 21.9 ± 2.3.

In the case of `C1=CCCCC1` [cyclohexene] + CCn1cc[n+](C)c1.F[B-](F)(F)F, the activity coefficient reads like this: (303.15 K) 21.8 ± 2.3; (313.15 K) 19.6 ± 2.1; (323.15 K) 16.6 ± 1.8; (333.15 K) 14.4 ± 1.5; (343.15 K) 12.8 ± 1.3; (353.15 K) 10.5 ± 1.1. Besides, the activity coefficient (363.15 K) amounted to 9.13 ± 0.96.

As to `CCCCCCCCCC` [decane] + CCn1cc[n+](C)c1.F[B-](F)(F)F, the activity coefficient (303.15 K) worked out at 1110 ± 120; the activity coefficient (313.15 K) is 984 ± 100; the activity coefficient (323.15 K) stood at 861 ± 91; the activity coefficient (333.15 K) turned out to be 751 ± 79; the activity coefficient (343.15 K) is 643 ± 68; the activity coefficient (353.15 K) is 545 ± 58. In addition, for the setting “363.15 K”, the activity coefficient was determined as 456 ± 48.

`ClCCl` [dichloromethane] + CCn1cc[n+](C)c1.F[B-](F)(F)F: the activity coefficient by setting is: (303.15 K) 1.12 ± 0.12; (313.15 K) 1.16 ± 0.12; (323.15 K) 1.21 ± 0.12; (333.15 K) 1.25 ± 0.13; (343.15 K) 1.32 ± 0.14; (353.15 K) 1.36 ± 0.14. The activity coefficient (363.15 K) amounted to 1.39 ± 0.14.

On to `CCOC(C)=O` [ethyl acetate] + CCn1cc[n+](C)c1.F[B-](F)(F)F, for which the activity coefficient is, setting by setting: (303.15 K) 2.94 ± 0.31; (313.15 K) 2.92 ± 0.31; (323.15 K) 2.89 ± 0.3; (333.15 K) 2.87 ± 0.3; (343.15 K) 2.83 ± 0.3; (353.15 K) 2.79 ± 0.29. Besides, the activity coefficient (363.15 K) turned out to be 2.75 ± 0.29.

Regarding `CCc1ccccc1` [ethylbenzene] + CCn1cc[n+](C)c1.F[B-](F)(F)F, the activity coefficient stood at 6.49 ± 0.68 (303.15 K); 6.3 ± 0.66 (313.15 K); 6.11 ± 0.64 (323.15 K); 5.89 ± 0.62 (333.15 K); 5.58 ± 0.59 (343.15 K); 5.44 ± 0.57 (353.15 K). Further, the activity coefficient (363.15 K) stood at 5.31 ± 0.56.

As to `CCCCCCC` [heptane] + CCn1cc[n+](C)c1.F[B-](F)(F)F, the activity coefficient reads like this: (303.15 K) 154 ± 16; (313.15 K) 138 ± 15; (323.15 K) 124 ± 13; (333.15 K) 111 ± 12; (343.15 K) 104 ± 11; (353.15 K) 96 ± 10. Also, where the note is “363.15 K”, the activity coefficient amounted to 90.4 ± 9.5.

As for `CCCCCC` [hexane] + CCn1cc[n+](C)c1.F[B-](F)(F)F, the activity coefficient is 101 ± 11 (303.15 K); 95.3 ± 10 (313.15 K); 90.6 ± 9.5 (323.15 K); 85.3 ± 9 (333.15 K); 77.4 ± 8.2 (343.15 K); 74.5 ± 7.8 (353.15 K). Also, under “363.15 K”, the activity coefficient was found to be 69.5 ± 7.3.

Consider `CC1CCCCC1` [methylcyclohexane] + CCn1cc[n+](C)c1.F[B-](F)(F)F, for which the activity coefficient (303.15 K) came to 93 ± 9.8; the activity coefficient (313.15 K) amounted to 79.7 ± 8.4; the activity coefficient (323.15 K) is 67.7 ± 7.1; the activity coefficient (333.15 K) was 58.9 ± 6.2; the activity coefficient (343.15 K) amounted to 51.4 ± 5.4; the activity coefficient (353.15 K) turned out to be 43.3 ± 4.6. The activity coefficient (363.15 K) turned out to be 32.3 ± 3.4.

Regarding `CCCCCCCCC` [nonane] + CCn1cc[n+](C)c1.F[B-](F)(F)F, the activity coefficient came to 319 ± 34 (303.15 K); 294 ± 31 (313.15 K); 272 ± 29 (323.15 K); 254 ± 27 (333.15 K); 248 ± 26 (343.15 K); 235 ± 25 (353.15 K). Also, the activity coefficient (363.15 K) was 224 ± 24.

Turning to `CCCCCCCC` [octane] + CCn1cc[n+](C)c1.F[B-](F)(F)F, the activity coefficient worked out at 216 ± 23 (303.15 K); 201 ± 21 (313.15 K); 187 ± 20 (323.15 K); 173 ± 18 (333.15 K); 158 ± 17 (343.15 K); 149 ± 16 (353.15 K). Also, the activity coefficient (363.15 K) was found to be 140 ± 15.

Take `CCCCC` [pentane] + CCn1cc[n+](C)c1.F[B-](F)(F)F: the activity coefficient (303.15 K) was 68.8 ± 7.2; the activity coefficient (313.15 K) turned out to be 62.5 ± 6.6; the activity coefficient (323.15 K) came to 57.6 ± 6.1; the activity coefficient (333.15 K) worked out at 53.9 ± 5.7; the activity coefficient (343.15 K) was determined as 49 ± 5.2; the activity coefficient (353.15 K) worked out at 45.7 ± 4.8. Also, the activity coefficient (363.15 K) was 42.1 ± 4.4.

On to `C=Cc1ccccc1` [styrene] + CCn1cc[n+](C)c1.F[B-](F)(F)F, for which the activity coefficient runs as follows: (303.15 K) 3.38 ± 0.35; (313.15 K) 3.44 ± 0.36; (323.15 K) 3.49 ± 0.37; (333.15 K) 3.56 ± 0.37; (343.15 K) 3.62 ± 0.38; (353.15 K) 3.65 ± 0.38. For the same compound, the activity coefficient (363.15 K) was 3.73 ± 0.39.

As for `ClC(Cl)(Cl)Cl` [tetrachloromethane] + CCn1cc[n+](C)c1.F[B-](F)(F)F, the activity coefficient reads like this: (303.15 K) 4.31 ± 0.45; (313.15 K) 4.41 ± 0.46; (323.15 K) 4.56 ± 0.48; (333.15 K) 4.66 ± 0.49; (343.15 K) 4.8 ± 0.5; (353.15 K) 4.89 ± 0.51. Also, the activity coefficient (363.15 K) turned out to be 4.98 ± 0.52.

Take `C1CCOC1` [tetrahydrofuran] + CCn1cc[n+](C)c1.F[B-](F)(F)F: the activity coefficient worked out at 1.87 ± 0.2 (303.15 K); 1.85 ± 0.19 (313.15 K); 1.83 ± 0.19 (323.15 K); 1.82 ± 0.19 (333.15 K); 1.8 ± 0.19 (343.15 K); 1.77 ± 0.18 (353.15 K). The activity coefficient (363.15 K) is 1.74 ± 0.18.

As to `Cc1ccccc1` [toluene] + CCn1cc[n+](C)c1.F[B-](F)(F)F, the activity coefficient by setting is: (303.15 K) 3.68 ± 0.39; (313.15 K) 3.66 ± 0.38; (323.15 K) 3.62 ± 0.38; (333.15 K) 3.56 ± 0.37; (343.15 K) 3.52 ± 0.37; (353.15 K) 3.48 ± 0.37. For the same compound, under “363.15 K”, the activity coefficient was 3.4 ± 0.36.

Consider `ClC(Cl)Cl` [trichloromethane] + CCn1cc[n+](C)c1.F[B-](F)(F)F, for which the activity coefficient is 1.36 ± 0.14 (303.15 K); 1.38 ± 0.14 (313.15 K); 1.39 ± 0.14 (323.15 K); 1.41 ± 0.15 (333.15 K); 1.43 ± 0.15 (343.15 K); 1.46 ± 0.15 (353.15 K). In addition, where the note is “363.15 K”, the activity coefficient came out at 1.5 ± 0.15.
